The values below come from patent US20230023332A1, “OLEAN-PHENYLACRYLAMIDE DERIVATIVE, METHOD FOR PREPARING SAME, AND USE THEREOF” (Lunan Pharmaceutical Group Corporation, priority 2019, published 2023).

Where two headings read alike, the source gives them in different places.

Data set [1] has as its system human renal tubular epithelial cells HK-2. As to the kind of experiment: MTT proliferation inhibition / toxicity, HK-2. Particulars: for IC50: HK-2 cells, MTT, 48 h, read-out: Inhibitory activity (IC50) against proliferation, HK-2; for toxicity to human renal tubular epithelial cells HK-2: statement in words. It counts as cell-based. The procedure: (§1) The anti-tumor activity of the compounds of the present invention was determined by the method of methyl thiazolyl tetrazolium (MTT), Bardoxolone Methyl (CDDO-Me) being selected as a positive control medicament.
(§2) Instruments: ultra-clean bench (SW-CJ-1FD, AIRTECH, Suzhou Antai Airtech Co. Ltd.), constant-temperature CO2 incubator (3111, Thermo, USA), inverted biomicroscope (IX71, OLYMPUS, Japan), ELISA microplate reader (Model 680, BIO-RAD, USA), platform shaker (Kylin-bell lab Instruments), autoclave (YXO.SG4I.280, Shanghai Huaxian), and centrifuge (SIGMA).
(§3) Reagents: DMEM (GIBCO), fetal bovine serum (GIBCO), trypsin (SIGMA), and DMSO (SIGMA).
(§4) Cell strains: human non-small cell lung cancer cell strain A549, human liver cancer cell strain HepG2, human breast cancer cell strain MCF-7, human renal tubular epithelial cells HK-2, rat embryonic cardiomyocytes H9C2 (all provided by Jiangsu KeyGEN BioTECH Co., Ltd.).
(§5) Methods: the cryopreserved cell strains were resuscitated and cultured in a CO2 incubator at a constant temperature of 37° C. with liquid being changed once daily. Plating was carried out when the cell strains were in a good state in the exponential phase. 1 mL of 0.25% trypsin solution was added for digestion for 1-2 min. The cell status was observed under the microscope, and when the adherent cells became round and shrunk, the digestion solution was aspirated and 1-2 mL of a DMEM medium containing 10% fetal bovine serum was added to obtain a cell suspension, on which a cell count was performed. The amount of required cell suspension was calculated on the basis of 5×10^4 cells per well and the total number of wells. The cell suspension was inoculated on a 96-well plate at 100 μL/well, the surroundings being blocked with PBS, followed by incubation in a CO2 incubator at a constant temperature of 37° C. for 24 h.
(§6) The test medicament, positive control medicament CDDO-Me, and blank control group DMSO were prepared in DMEM media to a final concentration of 5 μM/well, each medicament being placed in 3 replicate wells, followed by incubation for 48 h. The MTT reagent was added to the 96-well plate at 10 μL/well to further incubate for 4 h. The medium in the plate was aspirated and 100 μL of DMSO was added to each well, followed by shaking on the platform shaker for 10 min such that the crystals were dissolved. The absorbance of each well was examined by the ELISA microplate reader at a wavelength of 570 nm, and the cell inhibition rate was calculated according to the formula hereinafter. The mean value of three preliminary screening results was taken as the final inhibition rate thereof.
(§7) Cell inhibition rate (%)=[(OD value of blank control−OD value of dosing cohort)/OD value of blank control group]×100%

Data set [2] relates to rat embryonic cardiomyocytes H9C2. In words: MTT proliferation inhibition / toxicity, H9C2. It counts as cell-based. As to conditions: for IC50: H9C2 cardiomyocytes, MTT, 48 h, read-out: Inhibitory activity (IC50) against proliferation, H9C2; for inhibitory activity against normal cardiomyocytes H9C2 relative to CDDO-Me: fraction of the inhibitory activity of CDDO-Me. The procedure:
as §1, §2, §3, §4, §5, §6, §7

In data set [3] the test system is S180 ascitic tumor cells. As to the kind of experiment: Inhibitory effect on tumors in S180 tumor-bearing mice. It counts as in vivo, ICR mice. As to conditions: for Tumor Mass / Tumor inhibition rate: 7 consecutive days; for Splenic index: 7 days. The procedure: (§8) 1) Experimental animals: 72 female ICR mice between 6 and 8 weeks of age; experimental cells: S180 ascitic tumor cells.
(§9) 8 animals were used as the normal group, and the rest of the mice were subjected to modeling by the following method.
(§10) 2) Proliferation and passaging of S180 ascitic tumor cells: S180 ascitic tumor cells cryopreserved at −80° C. were thawed in a water bath at 37° C., placed in a 12 mL centrifuge tube, to which an appropriate amount of saline was added, and centrifuged at 1200 rpm for 5 min. The supernatant was discarded, then the cells were resuspended in 300 μL of saline and intraperitoneally injected into an ICR mouse. As the mouse's abdomen swelled up, intraperitoneal injection of the cells in a second ICR mouse was performed, and the cells were ready for inoculation when the abdomen thereof swelled up.
(§11) 3) Inoculation of S180 tumor cells in the armpit of mice: S180 cells cultured to 2 passages were centrifuged and saline was added to obtain a concentration of 1×10^7 cells/mL. A volume of 100 μL of the cells were injected subcutaneously into armpit of mice. A mouse tumor-bearing model was developed.
(§12) The model mice were divided into a tumor-bearing model group, a compound I-7 5 mg/kg group, a compound I-7 15 mg/kg group, a compound I-12 5 mg/kg group, a compound I-12 15 mg/kg group, a compound I-16 5 mg/kg group, a compound I-16 15 mg/kg group and a CDDO-Me 15 mg/kg group.
(§13) There were 8 mice in each group.
(§14) 4) Dosing: the medicaments were administered intragastrically when the tumor grew out.
Compound I-7 of 5 mg/kg was administered in the compound I-7 5 mg/kg group;
compound I-7 of 15 mg/kg was administered in the compound I-7 15 mg/kg group;
compound I-12 of 5 mg/kg was administered in the compound I-12 5 mg/kg group;
compound I-12 of 15 mg/kg was administered in the compound I-12 15 mg/kg group;
compound I-16 of 5 mg/kg was administered in the compound I-16 5 mg/kg group;
compound I-16 of 15 mg/kg was administered in the compound I-16 15 mg/kg group; and
CDDO-Me of 15 mg/kg was administered in the CDDO-Me 15 mg/kg group.
(§15) An equal volume of 0.5% croscarmellose sodium was administered to the normal group and the model group.
(§16) The dosing was executed for 7 consecutive days. The mice were dissected the next day following the last dosing.
(§17) Testing items: the body weight, spleen weight and tumor weight were measured. The spleens were ground on ice, followed by red blood cell lysis and incubation with FITC-CD11b, LY6C, and LY6G antibodies for 15 min, and then tested for CD11b+LY6Chi+ and CD11b+LY6G+ with flow cytometry.

Data set [4] has as its system M-MDSC, PMN-MDSC. In words: Spleen M-MDSC / PMN-MDSC by flow cytometry in S180 tumor-bearing mice. It counts as in vivo, ICR mice. As to conditions: 7 days; for M-MDSC: CD11b+LY6Chi+; for PMN-MDSC: CD11b+LY6G+. The procedure: as §8, §9, §10, §11, §12, §13, §14, §15, §16, §17
The subject of data set [5] is human breast cancer cell strain MCF-7. In words: MTT proliferation inhibition, MCF-7. Type of data set: cell-based. Particulars: 48 h, read-out: Inhibitory activity (IC50) against proliferation, MCF-7. The procedure: as §1, §2, §3, §4, §5, §6, §7
Data set [6] deals with human liver cancer cell strain HepG2. As to the kind of experiment: MTT proliferation inhibition, HepG2. It counts as cell-based. As to conditions: HepG2 cells, 48 h, read-out: Inhibitory activity (IC50) against proliferation, HepG2. The procedure: as §1, §2, §3, §4, §5
The MTT reagent was added to the 96-well plate at 10 μL/well to further incubate for 4 h. The medium in the plate was aspirated and 100 μL of DMSO was added to each well, followed by shaking on the platform shaker for 10 min such that the crystals were dissolved. […] The mean value of three preliminary screening results was taken as the final inhibition rate thereof.
as §7

Data set [7] has as its system human non-small cell lung cancer cell strain A549. In words: MTT proliferation inhibition, A549. Type of data set: cell-based. Particulars: A549 cells, 48 h, read-out: Inhibitory activity (IC50) against proliferation, A549. The procedure: as §1, §2, §3, §4, §5, §6, §7
[8] abbreviates: Homo sapiens, MCF7, MCF-7 cells.

For the compound `CC1(C)CC[C@]2(NC(=O)/C(C#N)=C/c3ccc(Cl)cc3)CC[C@]3(C)[C@H](C(=O)C=C4[C@@]5(C)C=C(C#N)C(=O)C(C)(C)[C@@H]5CC[C@]43C)[C@@H]2C1` [Compound I-12], the IC50 in data set [1] (Homo sapiens) was found to be 2430 ± 33 nM; in data set [2] (Rattus norvegicus) it was 3.14 ± 1.53 µM; in data set [5] (setting [8]), 1640 ± 462 nM; in data set [6] (Homo sapiens), 974 ± 58 nM; in data set [7] (Homo sapiens), 761 ± 32 nM. Also, the “toxicity to human renal tubular epithelial cells HK-2” value (shortened to “toxicity”) in data set [1] is “lower toxicity”. Also, the “inhibitory activity against normal cardiomyocytes H9C2 relative to CDDO-Me” value in data set [2] is listed as “approximately 1/10”. In addition, the “Tumor Mass” value in data set [3] (5 mg/kg intragastric) turned out to be 1.33 ± 0.11 g; in data set [3] (15 mg/kg intragastric), 0.66 ± 0.14 g. The Tumor inhibition rate in data set [3] (5 mg/kg intragastric) came to 49.55%; in data set [3] (15 mg/kg intragastric), 74.96%. The Splenic index was 45.99 ± 7.68^##* 10*mg/g in data set [3] (5 mg/kg intragastric) and 44.37 ± 5.27^###** 10*mg/g in data set [3] (15 mg/kg intragastric). For the same compound, the M-MDSC in data set [4] (5 mg/kg intragastric) is given as 0.63 ± 0.13 %; in data set [4] (15 mg/kg intragastric), 0.38 ± 0.23 %. Further, the results for the PMN-MDSC in data set [4] (5 mg/kg intragastric) and in data set [4] (15 mg/kg intragastric) were 8.86 ± 1.53 % and 4.82 ± 0.62 %, respectively.
For the compound `COC(=O)[C@]12CCC(C)(C)C[C@H]1[C@H]1C(=O)C=C3[C@@]4(C)C=C(C#N)C(=O)C(C)(C)[C@@H]4CC[C@@]3(C)[C@]1(C)CC2` [CDDO-Me, 2-cyano-3,12-dioxoolean-1,9(11)-dien-28-oic acid methyl ester, reference compound], the IC50 is 335 ± 34 nM in data set [1]; 0.308 ± 0.01 µM in data set [2]; 728 ± 288 nM in data set [5] (MCF-7 cells); 326 ± 21 nM in data set [6]; 448 ± 12 nM in data set [7]. Moreover, the “Tumor Mass” value in data set [3] (15 mg/kg intragastric) came out at 1.67 ± 0.14 g. Besides, in data set [3] (15 mg/kg intragastric), the Tumor inhibition rate came to 36.75%. Further, in data set [3] (15 mg/kg intragastric), the Splenic index is 53.61 ± 4.15 10*mg/g. In data set [4] (15 mg/kg intragastric), this compound displayed a M-MDSC of 1.15 ± 0.12 %. In addition, in data set [4] (15 mg/kg intragastric), the PMN-MDSC is recorded as 10.91 ± 1.62 %.
For `CC1(C)CC[C@]2(NC(=O)/C(C#N)=C/c3ccccc3)CC[C@]3(C)[C@H](C(=O)C=C4[C@@]5(C)C=C(C#N)C(=O)C(C)(C)[C@@H]5CC[C@]43C)[C@@H]2C1` [Compound I-7], the IC50 in data set [1] (Homo sapiens) was 1780 ± 259 nM; in data set [2], 3.17 ± 1.74 µM; in data set [2] (Rattus norvegicus, H9c2, 48 h), 3.18 ± 1.74 µM; in data set [5] (setting [8]), 2225 ± 22 nM; in data set [6] (Homo sapiens), 2720 ± 36 nM; in data set [7] (Homo sapiens), 315 ± 68 nM. Besides, the “toxicity” value in data set [1] was “lower toxicity”. Also, in data set [2], the “inhibitory activity against normal cardiomyocytes H9C2 relative to CDDO-Me” value was “approximately 1/10”. For the same compound, the entries for the “Tumor Mass” value in data set [3] (5 mg/kg intragastric) and in data set [3] (15 mg/kg intragastric) were 1.53 ± 0.10 ^ g and 1.45 ± 0.12 g, respectively. For the same compound, the values for the Tumor inhibition rate in data set [3] (5 mg/kg intragastric) and in data set [3] (15 mg/kg intragastric) were 42.17% and 45.20%, respectively. Moreover, the Splenic index in data set [3] (5 mg/kg intragastric) was 48.55 ± 4.62^##* 10*mg/g; in data set [3] (15 mg/kg intragastric) it was 47.03 ± 6.54^##* 10*mg/g. For the same compound, the M-MDSC in data set [4] (5 mg/kg intragastric) turned out to be 0.68 ± 0.22 %; in data set [4] (15 mg/kg intragastric), 0.59 ± 0.09 %. In addition, the PMN-MDSC turned out to be 8.72 ± 1.13 % in data set [4] (5 mg/kg intragastric) and 6.34 ± 1.47 % in data set [4] (15 mg/kg intragastric).
Consider `CC1(C)CC[C@]2(NC(=O)/C=C(\C#N)c3ccc(C(F)(F)F)cc3)CC[C@]3(C)[C@H](C(=O)C=C4[C@@]5(C)C=C(C#N)C(=O)C(C)(C)[C@@H]5CC[C@]43C)[C@@H]2C1` [Compound I-16], for which the IC50 in data set [1] (Homo sapiens) was 618 ± 72 nM; in data set [2] (Rattus norvegicus), 0.108 ± 0.007 µM; in data set [5] (setting [8]), 958 ± 209 nM; in data set [6] (Homo sapiens), 934 ± 11 nM; in data set [7] (Homo sapiens), 888 ± 21 nM. Besides, the “toxicity” value in data set [1] is on record as “lower toxicity”. Also, the “Tumor Mass” value was 1.49 ± 0.17 ^ g in data set [3] (5 mg/kg intragastric) and 0.96 ± 0.14 g in data set [3] (15 mg/kg intragastric). Besides, the values for the Tumor inhibition rate in data set [3] (5 mg/kg intragastric) and in data set [3] (15 mg/kg intragastric) were 43.69% and 63.60%, respectively. The results for the Splenic index in data set [3] (5 mg/kg intragastric) and in data set [3] (15 mg/kg intragastric) were 47.86 ± 5.73^###* 10*mg/g and 46.45 ± 5.20^###* 10*mg/g, respectively. Further, the M-MDSC in data set [4] (5 mg/kg intragastric) came out at 0.71 ± 0.08 %; in data set [4] (15 mg/kg intragastric), 0.40 ± 0.07 %. Besides, the PMN-MDSC in data set [4] (5 mg/kg intragastric) stood at 8.72 ± 2.09 %; in data set [4] (15 mg/kg intragastric), 6.79 ± 1.55 %.
